Assay results: ChEMBL document CHEMBL3885861, “Open TG-GATES”

Species: Rattus norvegicus
Assay: Open TG-GATES - Regimen: Single
Type: toxicity, organism-based, Sprague-Dawley
Design: regimen Single, gender Male, age 6 weeks
Details: in vivo, po, route gavage; for APTT / Bas / Eos / Fbg / Hb / Ht / Lym / MCH / MCHC / MCV / Mono / Neu / PT / Plat / RBC / Ret / WBC: tissue Blood; for KIDNEY_L / KIDNEY_R / KIDNEY_TOTAL: tissue Kidney; for LIVER: tissue Liver; for A/G / ALP / ALT / AST / BUN / CRE / Ca / Cl / DBIL / GLC / IP / K / LDH / Na / PL / RALB / TBIL / TC / TG / TP / gamma-GTP: tissue Plasma
[1] = 1000 mg/kg, 3 h, dose level Middle
[2] = 1000 mg/kg, 6 h, dose level Middle
[3] = 1000 mg/kg, 9 h, dose level Middle
[4] = 1000 mg/kg, 24 h, dose level Middle
[5] = 2000 mg/kg, 3 h, dose level High
[6] = 2000 mg/kg, 6 h, dose level High
[7] = 2000 mg/kg, 9 h, dose level High
[8] = 2000 mg/kg, 24 h, dose level High

## CCOc1ccc(NC(=O)CC(C)O)cc1 (centres undefined) [BUCETIN]
[1]
  TERMINAL_BW: 211.2 g
  APTT: 14.7 s
  Bas: 0%
  Eos: 1%
  Fbg: 303 mg/dL
  Hb: 13 g/dL
  Ht: 38.6%
  Lym: 78.4%
  MCH: 20.6 pg
  MCHC: 33.7%
  MCV: 61.2 fL
  Mono: 2%
  Neu: 18.2%
  PT: 13.5 s
  Plat: 123 x10_4/uL
  RBC: 630.8 x10_4/ul
  Ret: 7.9%
  WBC: 70.9 x10_2/uL
  KIDNEY_L: 0.9 g
  KIDNEY_R: 1 g
  KIDNEY_TOTAL: 1.9 g
  LIVER: 9.1 g
  A/G: 0.9
  ALP: 1363.2 IU/L
  ALT: 33 IU/L
  AST: 65.6 IU/L
  BUN: 8.4 mg/dL
  CRE: 0.1 mg/dL
  Ca: 10.5 mg/dL
  Cl: 104.6 meq/L
  DBIL: 0.03 mg/dL
  GLC: 182.2 mg/dL
  IP: 9.1 mg/dL
  K: 4.2 meq/L
  LDH: 66.6 IU/L
  Na: 141.4 meq/L
  PL: 137.4 mg/dL
  RALB: 2.5 g/dL
  TBIL: 0.05 mg/dL
  TC: 73.6 mg/dL
  TG: 51.6 mg/dL
  TP: 5.2 g/dL
  gamma-GTP: 1.4 IU/L
[2]
  TERMINAL_BW: 208.9 g
  APTT: 19.8 s
  Bas: 0%
  Eos: 1%
  Fbg: 317 mg/dL
  Hb: 13.3 g/dL
  Ht: 39.5%
  Lym: 77%
  MCH: 20.9 pg
  MCHC: 33.6%
  MCV: 62.1 fL
  Mono: 2.6%
  Neu: 19%
  PT: 13.7 s
  Plat: 118.7 x10_4/uL
  RBC: 636.6 x10_4/ul
  Ret: 7.8%
  WBC: 61.8 x10_2/uL
  KIDNEY_L: 0.9 g
  KIDNEY_R: 0.9 g
  KIDNEY_TOTAL: 1.8 g
  LIVER: 8.3 g
  A/G: 0.9
  ALP: 1231.6 IU/L
  ALT: 29 IU/L
  AST: 64.4 IU/L
  BUN: 8.6 mg/dL
  CRE: 0.2 mg/dL
  Ca: 10.7 mg/dL
  Cl: 105.4 meq/L
  DBIL: 0.036 mg/dL
  GLC: 186.8 mg/dL
  IP: 10.3 mg/dL
  K: 4.2 meq/L
  LDH: 57.8 IU/L
  Na: 142 meq/L
  PL: 139 mg/dL
  RALB: 2.6 g/dL
  TBIL: 0.062 mg/dL
  TC: 82.2 mg/dL
  TG: 28.4 mg/dL
  TP: 5.5 g/dL
  gamma-GTP: 1 IU/L
[3]
  TERMINAL_BW: 204.6 g
  APTT: 16.1 s
  Bas: 0%
  Eos: 0.6%
  Fbg: 311.6 mg/dL
  Hb: 13.6 g/dL
  Ht: 40.3%
  Lym: 78.8%
  MCH: 21.1 pg
  MCHC: 33.8%
  MCV: 62.4 fL
  Mono: 2.2%
  Neu: 17.8%
  PT: 14.2 s
  Plat: 125.3 x10_4/uL
  RBC: 646.4 x10_4/ul
  Ret: 8.3%
  WBC: 48.8 x10_2/uL
  KIDNEY_L: 0.9 g
  KIDNEY_R: 0.9 g
  KIDNEY_TOTAL: 1.8 g
  LIVER: 8.2 g
  A/G: 0.9
  ALP: 1308.4 IU/L
  ALT: 29.6 IU/L
  AST: 62.6 IU/L
  BUN: 7.6 mg/dL
  CRE: 0.1 mg/dL
  Ca: 10.6 mg/dL
  Cl: 106 meq/L
  DBIL: 0.04 mg/dL
  GLC: 196.6 mg/dL
  IP: 9.8 mg/dL
  K: 4 meq/L
  LDH: 56.2 IU/L
  Na: 142.4 meq/L
  PL: 130.6 mg/dL
  RALB: 2.6 g/dL
  TBIL: 0.054 mg/dL
  TC: 71.6 mg/dL
  TG: 26.2 mg/dL
  TP: 5.5 g/dL
  gamma-GTP: 1 IU/L
[4]
  TERMINAL_BW: 208.1 g
  APTT: 23.5 s
  Bas: 0%
  Eos: 1%
  Fbg: 268.6 mg/dL
  Hb: 13.4 g/dL
  Ht: 40.5%
  Lym: 77.6%
  MCH: 20.7 pg
  MCHC: 33.2%
  MCV: 62.3 fL
  Mono: 3%
  Neu: 18%
  PT: 15.1 s
  Plat: 125 x10_4/uL
  RBC: 650.2 x10_4/ul
  Ret: 7.5%
  WBC: 77.3 x10_2/uL
  KIDNEY_L: 1 g
  KIDNEY_R: 1 g
  KIDNEY_TOTAL: 1.9 g
  LIVER: 8.9 g
  A/G: 0.9
  ALP: 1549 IU/L
  ALT: 48 IU/L
  AST: 92.2 IU/L
  BUN: 16 mg/dL
  CRE: 0.2 mg/dL
  Ca: 10.8 mg/dL
  Cl: 106.8 meq/L
  DBIL: 0.03 mg/dL
  GLC: 169.6 mg/dL
  IP: 8.1 mg/dL
  K: 4.2 meq/L
  LDH: 93.8 IU/L
  Na: 144.2 meq/L
  PL: 154 mg/dL
  RALB: 2.6 g/dL
  TBIL: 0.07 mg/dL
  TC: 86.4 mg/dL
  TG: 66.2 mg/dL
  TP: 5.6 g/dL
  gamma-GTP: 1 IU/L
[5]
  TERMINAL_BW: 211.9 g
  APTT: 16.2 s
  Bas: 0%
  Eos: 1%
  Fbg: 308.4 mg/dL
  Hb: 13.1 g/dL
  Ht: 38.8%
  Lym: 74.8%
  MCH: 20.8 pg
  MCHC: 33.8%
  MCV: 61.7 fL
  Mono: 2.8%
  Neu: 21%
  PT: 13.7 s
  Plat: 123.8 x10_4/uL
  RBC: 628.8 x10_4/ul
  Ret: 8.2%
  WBC: 70.6 x10_2/uL
  KIDNEY_L: 0.9 g
  KIDNEY_R: 0.9 g
  KIDNEY_TOTAL: 1.9 g
  LIVER: 9.3 g
  A/G: 0.9
  ALP: 1367.8 IU/L
  ALT: 30.4 IU/L
  AST: 66 IU/L
  BUN: 9.2 mg/dL
  CRE: 0.1 mg/dL
  Ca: 10.8 mg/dL
  Cl: 103.8 meq/L
  DBIL: 0.032 mg/dL
  GLC: 198.4 mg/dL
  IP: 9.5 mg/dL
  K: 4.1 meq/L
  LDH: 67 IU/L
  Na: 141 meq/L
  PL: 148 mg/dL
  RALB: 2.5 g/dL
  TBIL: 0.054 mg/dL
  TC: 83.4 mg/dL
  TG: 52.2 mg/dL
  TP: 5.4 g/dL
  gamma-GTP: 1.2 IU/L
[6]
  TERMINAL_BW: 209.3 g
  APTT: 21.1 s
  Bas: 0.2%
  Eos: 0.4%
  Fbg: 315.2 mg/dL
  Hb: 13.7 g/dL
  Ht: 40.6%
  Lym: 79%
  MCH: 20.7 pg
  MCHC: 33.7%
  MCV: 61.2 fL
  Mono: 2.2%
  Neu: 17.8%
  PT: 13.5 s
  Plat: 124.4 x10_4/uL
  RBC: 662.8 x10_4/ul
  Ret: 8.2%
  WBC: 64.5 x10_2/uL
  KIDNEY_L: 0.9 g
  KIDNEY_R: 0.9 g
  KIDNEY_TOTAL: 1.9 g
  LIVER: 8.5 g
  A/G: 0.9
  ALP: 1336.4 IU/L
  ALT: 36.2 IU/L
  AST: 68.6 IU/L
  BUN: 8.4 mg/dL
  CRE: 0.1 mg/dL
  Ca: 10.6 mg/dL
  Cl: 102.2 meq/L
  DBIL: 0.032 mg/dL
  GLC: 201.8 mg/dL
  IP: 10.1 mg/dL
  K: 3.7 meq/L
  LDH: 79.4 IU/L
  Na: 141.2 meq/L
  PL: 147.4 mg/dL
  RALB: 2.6 g/dL
  TBIL: 0.048 mg/dL
  TC: 85.2 mg/dL
  TG: 27.6 mg/dL
  TP: 5.5 g/dL
  gamma-GTP: 1.4 IU/L
[7]
  TERMINAL_BW: 208.4 g
  APTT: 18.5 s
  Bas: 0%
  Eos: 0.8%
  Fbg: 314.8 mg/dL
  Hb: 13.3 g/dL
  Ht: 39%
  Lym: 80.6%
  MCH: 20.8 pg
  MCHC: 34%
  MCV: 61.1 fL
  Mono: 2.2%
  Neu: 16.2%
  PT: 14.1 s
  Plat: 119.7 x10_4/uL
  RBC: 639.8 x10_4/ul
  Ret: 8.3%
  WBC: 54.6 x10_2/uL
  KIDNEY_L: 0.9 g
  KIDNEY_R: 0.9 g
  KIDNEY_TOTAL: 1.9 g
  LIVER: 8.2 g
  A/G: 0.9
  ALP: 1215 IU/L
  ALT: 28.8 IU/L
  AST: 62.8 IU/L
  BUN: 8.2 mg/dL
  CRE: 0.1 mg/dL
  Ca: 10.5 mg/dL
  Cl: 103.4 meq/L
  DBIL: 0.042 mg/dL
  GLC: 199.2 mg/dL
  IP: 9.8 mg/dL
  K: 4.1 meq/L
  LDH: 64.2 IU/L
  Na: 140.6 meq/L
  PL: 150.6 mg/dL
  RALB: 2.6 g/dL
  TBIL: 0.052 mg/dL
  TC: 82.6 mg/dL
  TG: 43.6 mg/dL
  TP: 5.5 g/dL
  gamma-GTP: 1 IU/L
[8]
  TERMINAL_BW: 202.1 g
  APTT: 17.9 s
  Bas: 0.4%
  Eos: 0.8%
  Fbg: 294.2 mg/dL
  Hb: 14 g/dL
  Ht: 41.4%
  Lym: 79.2%
  MCH: 20.9 pg
  MCHC: 33.8%
  MCV: 61.7 fL
  Mono: 3%
  Neu: 16%
  PT: 14.4 s
  Plat: 128.9 x10_4/uL
  RBC: 670 x10_4/ul
  Ret: 7.1%
  WBC: 75.9 x10_2/uL
  KIDNEY_L: 1 g
  KIDNEY_R: 0.9 g
  KIDNEY_TOTAL: 1.9 g
  LIVER: 8.4 g
  A/G: 0.9
  ALP: 1381.2 IU/L
  ALT: 46.2 IU/L
  AST: 96.4 IU/L
  BUN: 11.8 mg/dL
  CRE: 0.2 mg/dL
  Ca: 10.9 mg/dL
  Cl: 104.8 meq/L
  DBIL: 0.078 mg/dL
  GLC: 175.2 mg/dL
  IP: 9.7 mg/dL
  K: 4.1 meq/L
  LDH: 102.4 IU/L
  Na: 142.4 meq/L
  PL: 166.6 mg/dL
  RALB: 2.7 g/dL
  TBIL: 0.078 mg/dL
  TC: 97.6 mg/dL
  TG: 57 mg/dL
  TP: 5.8 g/dL
  gamma-GTP: 1 IU/L
